Measurements as given in ChEMBL document CHEMBL4359832, “Fragment-Based Discovery of Novel Potent Sepiapterin Reductase Inhibitors” (J Med Chem, 2019).

assay: physchem; settings: buffer, pH 7.4

| SMILES | logD |
| --- | --- |
| O=C(c1c(O)cc(Cl)cc1Cl)N1CCC(c2cccnc2)C1 (racemic) | 1.7 |
| O=C(c1ncc(Cl)cc1O)N1CCC2(CCC2)C1 | 4.9 |
| O=C(c1c(O)cc(Cl)cc1Cl)N1CCC(Cc2ccccc2)C1 (stereo not drawn) | 3.8 |
| CC1Cc2ccccc2N1C(=O)c1c(O)cc(Cl)cc1Cl (stereo not drawn) | 3.5 |

Continued, values first:

| logD | SMILES |
| --- | --- |
| 1.2 | O=C(c1c(O)cncc1Cl)N1CCC2(CCC2)C1 |
| 1.6 | Cn1cc(C2CCN(C(=O)c3c(O)cc(Cl)cc3Cl)C2)cn1 (racemic) |
| 4 | COc1cc(Cl)cc(Cl)c1C(=O)N1CCC2(CCC2)C1 |
| 3.7 | O=C(c1c(O)cc(Cl)cc1Cl)N1CCCC2(CCC2)C1 |
